We go through one substance from patent US20230067811A1, “MODULATING LYMPHATIC VESSELS IN NEUROLOGICAL DISEASE” (University of Virginia Patent Foundation, priority 2020, published 2023).

The test system of this assay is microglia. Briefly: Single-cell RNA-seq of brain cortical myeloid cells after meningeal lymphatic ablation. The format is in vivo, mouse. Conditions: 5×FAD mice, Vis. versus Vis./photo. groups. As to the method: Transcriptome of sorted live CD45^+Ly6G^negCD11b^+ cells pooled from 3 mice per group was analyzed by single-cell RNA-seq (scRNA-seq).
J Neurosci 28, 14156-14164, (2008)). Thus, it was hypothesized that altered microglial function in mice with impaired meningeal lymphatics was contributing to decreased clearance of Aβ by anti-Abeta antibody. Single-cell RNA-seq was performed on live myeloid CD45^+Ly6G^negCD11b^+ cells sorted from the brain cortices of 5×FAD mice with intact or ablated meningeal lymphatics (FIG. 13A). After in-silico removal of undesired cell contaminants, shared nearest neighbor clustering and t-distributed stochastic neighbor embedding, four clusters of microglia were identified (FIG. 13B). […] Cell 169, 1276-1290 e1217, (2017); Krasemann, S. et al. The TREM2-APOE Pathway Drives the Transcriptional Phenotype of Dysfunctional Microglia in Neurodegenerative Diseases. Immunity 47, 566-581 e569, (2017)). Concomitantly, it was observed that there was a significant increase in cortical CD45^high cells (recruited leukocytes and/or activated microglia, FIGS. 13M-13Q) and in the levels of […] (encoded by the H2-D1 gene) in both CD45^intCD11b^+ (microglia) and CD45high CD11b^neg (recruited lymphoid cells) cells in mice with meningeal lymphatic dysfunction (FIGS. 13R-13U). […]

verteporfin [Visudyne]: the “frequency of microglia (% of total cells) from each cluster” value was “similar”.
